According to ChEMBL document CHEMBL4177716, “Design, synthesis and pharmacological evaluation of some novel indanone derivatives as acetylcholinesterase inhibitors for the management of cognitive dysfunction” (Bioorg Med Chem, 2018):
Activity calls are given as the source filed them. The rule behind the calls is not given here.

What was measured:
[1] = biological target: T1, Acetylcholinesterase (Mus musculus) (UniProt P21836); conditions: Brain, at 5 µM
T1 sequence (whole entry): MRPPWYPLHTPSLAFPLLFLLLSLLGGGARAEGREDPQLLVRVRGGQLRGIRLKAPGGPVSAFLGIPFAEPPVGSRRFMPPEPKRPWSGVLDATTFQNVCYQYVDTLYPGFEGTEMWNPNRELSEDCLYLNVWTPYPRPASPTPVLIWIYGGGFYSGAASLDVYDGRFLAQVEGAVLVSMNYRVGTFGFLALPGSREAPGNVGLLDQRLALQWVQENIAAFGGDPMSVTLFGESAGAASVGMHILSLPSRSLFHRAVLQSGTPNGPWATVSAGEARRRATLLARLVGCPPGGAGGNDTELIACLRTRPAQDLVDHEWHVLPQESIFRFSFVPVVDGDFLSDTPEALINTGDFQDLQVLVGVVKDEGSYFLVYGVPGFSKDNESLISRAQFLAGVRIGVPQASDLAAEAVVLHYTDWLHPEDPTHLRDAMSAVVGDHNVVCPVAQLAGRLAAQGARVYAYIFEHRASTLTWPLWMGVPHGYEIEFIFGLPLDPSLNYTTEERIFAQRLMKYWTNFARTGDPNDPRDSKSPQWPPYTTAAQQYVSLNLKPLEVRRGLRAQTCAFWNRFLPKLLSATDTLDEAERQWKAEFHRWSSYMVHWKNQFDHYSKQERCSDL

Mus musculus [2] = test: Cognition enhancing effect in albino mouse assessed as reversal of scopolamine-induced memory deficit by measuring reduction in number of mistake at 0.5 mg/kg, ip treated 5 mins post scopolamine challenge by step down passive avoidance test; format: functional, organism-based
Mus musculus [3] = test: Cognition enhancing effect in albino mouse assessed as reversal of scopolamine-induced memory deficit by measuring basal latency time at 0.5 mg/kg, ip treated 5 mins post scopolamine challenge by step down passive avoidance test (reference value: 63.93 +/- 2.6 sec); format: functional
[4] = biological target: T1, Acetylcholinesterase (Mus musculus); conditions: Brain, at 25 µM
[5] = biological target: T1, Acetylcholinesterase (Mus musculus); conditions: Brain, at 10 µM
Mus musculus [6] = test: Cognition enhancing effect in albino mouse assessed as reversal of scopolamine-induced memory deficit by measuring latency time at 0.5 mg/kg, ip treated 5 mins post scopolamine challenge by step down passive avoidance test (reference value: 68.16 +/- 0.4 sec); format: functional
[7] = biological target: T1, Acetylcholinesterase (Mus musculus); conditions: Brain, at 1 µM
[8] = biological target: T1, Acetylcholinesterase (Mus musculus); conditions: Brain, at 50 µM
Acetylcholinesterase = biological target: T2, Acetylcholinesterase (Mus musculus, UniProt P21836); design: species or system LACA
T2 sequence (P21836 whole entry): T1 sequence (whole entry)

[9] = biological target: T1, Acetylcholinesterase (Mus musculus); test: Inhibition of AchE in albino LACA mouse brain at 10^-3 M using acetylthiocholine iodide as substrate incubated for 10 mins measured for 2 mins by Ellman's method relative to control

| SMILES | inhibition [1] | Activity (Mus musculus [2]) | Time (Mus musculus [3]) | inhibition [4] | inhibition [5] | Time (Mus musculus [6]) | inhibition [7] | inhibition [8] | IC50 (Acetylcholinesterase) | inhibition [9] |
| --- | --- | --- | --- | --- | --- | --- | --- | --- | --- | --- |
| O=C(Oc1cccc(/C=C2\Cc3ccccc3C2=O)c1)c1ccc([N+](=O)[O-])cc1 | 68.3% | Active | 14.23 s | 60.8% | 65.3% | 7.98 s | 72.1% | 51% | 48.8 µM |  |
| COc1cc2c(cc1OC)C(=O)C(CC1CCN(CC(=O)Cc3nc4ccc(F)cc4s3)CC1)C2 (stereo not given) |  |  |  |  |  |  |  |  |  | 1.24% |
| COc1ccc(NC(=O)CN2CCC(CC3Cc4cc(OC)c(OC)cc4C3=O)CC2)cc1OC (stereo not given) |  |  |  |  |  |  |  |  |  | 7.33% |
| O=C(Oc1cccc(/C=C2\Cc3ccccc3C2=O)c1)c1cccc(CCl)c1 | 70.6% | Active | 20.86 s | 72.9% | 56.3% | 11.65 s | 75.9% | 59.3% | 27.1 µM |  |
| COc1cc(C(=O)Oc2cccc(/C=C3\Cc4ccccc4C3=O)c2)cc(OC)c1OC | 32.2% | Active | 13.81 s | 78.9% | 72.1% | 6.08 s | 69.1% | 32.9% | 14.1 µM |  |
| O=C(Oc1cccc(/C=C2\Cc3ccccc3C2=O)c1)c1ccccc1F | 48.8% | Active | 13.72 s | 35.2% | 40.5% | 5.9 s | 80.4% | 32.9% | 14.1 µM |  |
| COc1ccc2nc(CC(=O)CN3CCC(CC4Cc5cc(OC)c(OC)cc5C4=O)CC3)sc2c1 (stereo not given) |  |  |  |  |  |  |  |  |  | 3.72% |
| COc1cc2c(cc1OC)C(=O)C(CC1CCN(CC(=O)Nc3ccc([N+](=O)[O-])cc3)CC1)C2 (stereo not given) |  |  |  |  |  |  |  |  |  | 8.67% |
| O=C(Oc1cccc(/C=C2\Cc3ccccc3C2=O)c1)c1ccc(F)cc1 | 35.5% | Active | 22.06 s | 51.6% | 38.7% | 9.9 s | 33.9% | 54.8% | 40.6 µM |  |
| O=C(Oc1cccc(/C=C2\Cc3ccccc3C2=O)c1)c1cc(C(F)(F)F)cc(C(F)(F)F)c1 | 46.8% | Active | 12.63 s | 59.7% | 53.2% | 6.98 s | 38.7% | 67.7% | 12 µM |  |
| COc1cc2c(cc1OC)C(=O)C(CC1CCN(CC(=O)Nc3ccc(F)cc3)CC1)C2 (stereo not given) |  |  |  |  |  |  |  |  |  | 6.19% |
| COc1cc2c(cc1OC)C(=O)C(CC1CCN(CC(=O)Cc3nc4ccc(C)cc4s3)CC1)C2 (stereo not given) |  |  |  |  |  |  |  |  |  | 5.82% |
| O=C(Oc1cccc(/C=C2\Cc3ccccc3C2=O)c1)c1cccc(OC(F)(F)F)c1 | 72.1% | Active | 27.67 s | 91.7% | 64.6% | 12.01 s | 73.6% | 78.2% | 12.3 µM |  |
| COc1ccc(C(=O)Oc2cccc(/C=C3\Cc4ccccc4C3=O)c2)cc1 | 32.2% | Active | 14.82 s | 41.9% | 33.9% | 7.11 s | 30.6% | 48.4% | 38.9 µM |  |
| COc1cc2c(cc1OC)C(=O)C(CC1CCN(Cc3ccccc3)CC1)C2 (stereo not given) [DONEPEZIL] |  | Active | 17.67 s |  |  | 11.52 s |  |  |  |  |
| COc1cc2c(cc1OC)C(=O)C(CC1CCN(CC(=O)Cc3nc4cc(OC)c(OC)cc4s3)CC1)C2 (stereo not given) |  |  |  |  |  |  |  |  |  | 3.2% |
| O=C(Oc1cccc(/C=C2\Cc3ccccc3C2=O)c1)c1ccc(CCl)cc1 | 66.1% | Active | 14.82 s | 56.3% | 65.3% | 8.11 s | 67.6% | 53.3% | 79.7 µM |  |
| COc1cc2c(cc1OC)C(=O)C(CC1CCN(CC(=O)Nc3ccc(Cl)cc3)CC1)C2 (stereo not given) |  |  |  |  |  |  |  |  |  | 2.74% |
| COc1ccc(NC(=O)CN2CCC(CC3Cc4cc(OC)c(OC)cc4C3=O)CC2)cc1 (stereo not given) |  |  |  |  |  |  |  |  |  | 12.8% |
| COc1cc2c(cc1OC)C(=O)C(CC1CCN(CC(=O)Nc3ccc(C)cc3)CC1)C2 (stereo not given) |  |  |  |  |  |  |  |  |  | 13.9% |
| COc1cc2c(cc1OC)C(=O)C(CC1CCN(CC(=O)Cc3nc4ccc([N+](=O)[O-])cc4s3)CC1)C2 (stereo not given) |  |  |  |  |  |  |  |  |  | 5.9% |
| COc1cc2c(cc1OC)C(=O)C(CC1CCN(CC(=O)Cc3nc4ccc(Cl)cc4s3)CC1)C2 (stereo not given) |  |  |  |  |  |  |  |  |  | 2.13% |
| O=C(Oc1cccc(/C=C2\Cc3ccccc3C2=O)c1)c1ccccc1 | 27.4% | Active | 16.01 s | 48.4% | 37.1% | 10.01 s | 30.6% | 67.7% | 34.3 µM |  |
| O=C(Oc1cccc(/C=C2\Cc3ccccc3C2=O)c1)c1cc(Cl)cc(Cl)c1 | 41.9% | Active | 19.86 s | 43.5% | 33.9% | 12.65 s | 37% | 51.6% | 43.3 µM |  |
| COc1cc2c(cc1OC)C(=O)C(CC1CCN(CC(=O)Cc3nc4ccccc4s3)CC1)C2 (stereo not given) |  |  |  |  |  |  |  |  |  | 4.62% |
